Experimental data published in patent publication US5891877A, “Pharmaceutical compounds” (Xenova Limited, priority 1996, dated 1999).

Target: PAI-1 (Homo sapiens, UniProt P05121)
Assay: PAI-1 inhibition in the S2251 chromogenic substrate assay (PAI functional assay)
Format: biochemical
Settings: for INHIBITION OF PAI-1 (degree of inhibition): Table 1, first part, unit assumed; for IC50: PAI-1, S2251 assay, Table 2
Method: In this assay, a compound is incubated with PAI-1 prior to addition to the tPA assay system. Inhibition of PAI-1 results in the production of plasmin from plasminogen. […]
Compounds of formula (A) were tested in a PAI chromogenic substrate assay. […] In turn, the plasmin cleaved the chromogenic substrate S2251 (Kabi-Vitrum) producing pNA (p-nitroaniline) which was detected scectrophotometrically at 405 nm.

Sequence of PAI-1 (P05121 24-402): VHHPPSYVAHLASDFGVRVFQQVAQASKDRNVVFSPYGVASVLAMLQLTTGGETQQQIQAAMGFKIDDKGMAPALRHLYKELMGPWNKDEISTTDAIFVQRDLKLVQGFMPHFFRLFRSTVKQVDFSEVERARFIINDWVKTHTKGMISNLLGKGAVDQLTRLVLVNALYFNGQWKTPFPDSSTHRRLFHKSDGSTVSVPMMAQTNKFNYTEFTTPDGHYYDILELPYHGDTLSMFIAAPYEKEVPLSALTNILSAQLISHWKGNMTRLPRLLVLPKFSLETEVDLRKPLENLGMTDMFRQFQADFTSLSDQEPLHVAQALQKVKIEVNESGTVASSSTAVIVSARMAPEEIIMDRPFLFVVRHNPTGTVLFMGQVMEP

Row | SMILES | INHIBITION OF PAI-1 (degree of inhibition) (6.25 μm) [%] | INHIBITION OF PAI-1 (degree of inhibition) (12.5 μm) [%] | INHIBITION OF PAI-1 (degree of inhibition) (25 μm) [%] | INHIBITION OF PAI-1 (degree of inhibition) (50 μm) [%] | INHIBITION OF PAI-1 (degree of inhibition) (100 μm) [%] | IC50 [µM]
1 | CC(C)(C)OC(=O)n1cccc1/C=c1\[nH]c(=O)/c(=C/c2ccccc2)[nH]c1=O [Compound 1470, (3Z,6Z)-3-Benzylidene-6-(2-(1-tertbutoxycarbonyl)pyrrolyl)methylene-2,5-piperazinedione] | 0 | 0 | 2 | 20 | 70 | 50 to 100
2 | CC(C)(C)OC(=O)n1cc(/C=c2\[nH]c(=O)/c(=C/c3ccccc3)[nH]c2=O)c2ccccc21 [Compound 1471, (3Z,6Z)-3-Benzylidene-6-(3-(1-tert-butoxycarbonyl)indolyl)methylene-2,5-piperazinedione] | 0 | 6 | 20 | 60 | 80 | 25 to 50
3 | COc1ccc(/C=c2\[nH]c(=O)/c(=C/c3cccs3)[nH]c2=O)cc1 [Compound 1474, (3Z,6Z)-3-(4-Methoxybenzylidene)-6-(2-thienylmethylene)-2,5-piperazinedione] |  |  | 28 | 52 | 64 | 25 to 50
4 | COc1ccc(/C=c2\[nH]c(=O)/c(=C/c3ccoc3)[nH]c2=O)cc1 [Compound 1476, (3Z,6Z)-3-(4-Methoxybenzylidene)-6-(3-furylmethylene)-2,5-piperazinedione] |  |  | 18 | 48 | 68 | 50 to 100
5 | COc1ccc(/C=c2\[nH]c(=O)/c(=C/c3cn(C(=O)OC(C)(C)C)c4ccccc34)[nH]c2=O)cc1 [Compound 1506, (3Z,6Z)-3-(4-Methoxybenzylidene)-6-(3-(1-tert-butoxycarbonyl)indolyl)methylene-2,5-piperazinedione] | 2 | 4 | 26 | 58 | 75 | 25 to 50
6 | COc1ccc(/C=c2\[nH]c(=O)/c(=C/c3cccn3C(=O)OC(C)(C)C)[nH]c2=O)cc1 [Compound 1507, (3Z,6Z)-3-(4-Methoxybenzylidene)-6-(2-(1-tertbutoxycarbonyl)pyrrolyl)methylene-2,5-piperazinedione] | 1 | 1 | 45 | 62 | 78 | 25 to 50
7 | O=c1[nH]/c(=C\c2c[nH]c3ccccc23)c(=O)[nH]/c1=C\c1ccccc1 [Compound 1509, (3Z,6Z)-3-Benzylidene-6-(3-indolylmethylene)-2,5-piperazinedione] | 1 | 1 | 1 | 35 | 58 | 50 to 100
8 | O=c1[nH]/c(=C\c2c(Cl)cccc2Cl)c(=O)[nH]/c1=C\c1ccoc1 [Compound 1542, (3Z,6Z)-3-(2,6-Dichlorobenzylidene)-6-(3-furylmethylene)-2,5-piperazinedione] | 1 | 1 | 9 | 41 | 75 | 50 to 100
9 | COc1ccc(/C=c2\[nH]c(=O)/c(=C/c3c[nH]c4ccccc34)[nH]c2=O)cc1 [Compound 1545, (3Z,6Z)-3-(3-Indolylmethylene)-6-(4-methoxybenzylidene)-2,5-piperazinedione] | 1 | 5 | 39 | 64 | 87 | 
10 | CC(C)(C)OC(=O)n1cc(/C=c2\[nH]c(=O)/c(=C/c3c(Cl)cccc3Cl)[nH]c2=O)c2ccccc21 [Compound 1560, (3Z,6Z)-3-(2,6-Dichlorobenzylidene)-6-(1-tert-butoxycarbonyl-3-indolyl)methylene-2,5-piperazinedione] | 13 | 34 | 46 | 48 | 50 | 50 to 100
11 | CC(C)(C)OC(=O)n1cc(/C=c2\[nH]c(=O)/c(=C/c3cccs3)[nH]c2=O)c2ccccc21 [Compound 1618, (3Z,6Z)-3-(1-tert-butoxycarbonyl-3-indolyl)methylene-6-(2-thenylidene)-2,5-piperazinedione] |  | 1 | 3 | 32 | 51 | 50 to 100
12 | COc1ccc(/C=c2\[nH]c(=O)/c(=C/c3ccc(CN)cc3)[nH]c2=O)cc1 [Compound 1657, (3Z,6Z)-3-(4-Aminomethylbenzylidene)-6-(4-methoxybenzylidene)-2,5-piperazinedione] |  | 2 | 46 | 60 | 53 | 25 to 50
13 | CC(=O)Nc1ccc(/C=c2\[nH]c(=O)/c(=C/C3CCCCC3)[nH]c2=O)cc1 [Compound 1672] | 1 | 4 | 13 | 44 | 70 | 50 to 100
14 | CC(=O)Nc1ccc(/C=c2\[nH]c(=O)/c(=C/C=Cc3ccccc3)[nH]c2=O)cc1 [Compound 1676, (3Z,6Z)-3-(4-Acetamidobenzylidene)-6-cinnamylidene-2,5-piperazinedione] | 1 | 12 | 52 | 51 | 29 | 12 to 25
15 | COc1ccc(/C=c2\[nH]c(=O)/c(=C/c3cn(S(C)(=O)=O)c4ccccc34)[nH]c2=O)cc1 [Compound 1693, (3Z,6Z)-3-(1-methanesulfonyl-3-indolyl)methylene-6-(4-methoxybenzylidene)-2,5-piperazinedione] |  | 0 | 1 | 2 | 89 | 50 to 100
16 | COc1ccc(/C=c2\[nH]c(=O)/c(=C/c3cc4ccccc4[nH]3)[nH]c2=O)cc1 [Compound 1718, (3Z,6Z)-3-(2-Indolylmethylene)-6-(4-methoxybenzylidene)-2,5-piperazinedione] | 1 | 0 | 0 | 1 | 62 | 50 to 100
17 | O=c1[nH]/c(=C\c2ccc3c(c2)OCO3)c(=O)[nH]/c1=C\c1ccccc1 [Compound 1808, (3Z,6Z)-3-Benzylidene-6-(3,4-methylenedioxybenzylidene)-2,5-piperazinedione] | 1 | 2 | 73 | 48 | 76 | 
18 | COc1ccc(/C=c2\[nH]c(=O)/c(=C/c3ccc4c(c3)OCO4)[nH]c2=O)cc1 [Compound 1809, (3Z,6Z)-3-(4-Methoxybenzylidene)-6-(3,4-methylenedioxybenzylidene)-2,5-piperazinedione] | 1 | 7 | 84 | 76 | 81 | 
19 | CC(=O)Nc1ccc(/C=c2\[nH]c(=O)/c(=C/c3ccc4c(c3)OCO4)[nH]c2=O)cc1 [Compound 1845, (3Z,6Z)-3-(4-Acetamidobenzylidene)-6-(3,4-methylenedioxybenzylidene)-2,5-piperazinedione] | 53 | 60 | 49 | 30 | 14 | 
